Measured values taken from patent publication US10111874B2, “Combination therapies for treatment of cancer” (Araxes Pharma LLC, priority 2014, dated 2018).

Target: T1, KRAS G12C 1-169, his-tagged protein, GDP-loaded (Homo sapiens, UniProt P01116, G12C)
T1 construct: KRAS G12C 1-169, his-tagged protein, GDP-loaded
Assay: Biochemical assay: covalent binding to KRAS G12C analyzed by mass spectrometry; further: test concentration or dose not given here
Conditions: compounds 48-246, measured at 2 h

T1 sequence (P01116 1-169 isoform P01116-2 G12C): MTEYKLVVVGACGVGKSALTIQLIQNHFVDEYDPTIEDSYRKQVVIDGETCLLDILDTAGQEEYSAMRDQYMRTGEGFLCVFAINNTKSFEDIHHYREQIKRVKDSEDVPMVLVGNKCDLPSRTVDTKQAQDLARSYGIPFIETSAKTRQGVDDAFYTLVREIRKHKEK

Structure (SMILES) | Binding %
C=CC(=O)N1CCN(c2ncnc3cc(-c4cc(F)ccc4F)c(Cl)cc23)CC1 [Compound I-113, 1-(4-(6-chloro-7-(2,5-difluorophenyl)quinazolin-4-yl)piperazin-1-yl)prop-2-en-1-one] | +++ (+++indicates binding activity greater than 50% and up to 75%)
C=CC(=O)N1CCN(c2ncnc3cc(-c4ccc(Cl)cc4F)c(Cl)cc23)CC1 [Compound I-114, 1-(4-(6-chloro-7-(4-chloro-2-fluorophenyl)quinazolin-4-yl)piperazin-1-yl)prop-2-en-1-one] | +++ (+++indicates binding activity greater than 50% and up to 75%)
C=CC(=O)N1CCN(c2ncnc3cc(-c4cc(Cl)ccc4F)c(Cl)cc23)CC1 [Compound I-115, 1-(4-(6-chloro-7-(5-chloro-2-fluorophenyl)quinazolin-4-yl)piperazin-1-yl)prop-2-en-1-one] | +++ (+++indicates binding activity greater than 50% and up to 75%)
C=CC(=O)N1CCN(c2ncnc3cc(-c4ccccc4)c(Cl)cc23)CC1CO (stereo not drawn) [Compound I-116, 1-(4-(6-chloro-7-phenylquinazolin-4-yl)-2-(hydroxymethyl)piperazin-1-yl)prop-2-en-1-one] | ++ (++indicates binding activity greater than 25% and up to 50%)
C=CC(=O)N1CCN(c2ncnc3cc(-c4ccc(Cl)cc4O)c(Cl)cc23)CC1 [Compound I-117, 1-(4-(6-chloro-7-(4-chloro-2-hydroxyphenyl)quinazolin-4-yl)piperazin-1-yl)prop-2-en-1-one] | +++ (+++indicates binding activity greater than 50% and up to 75%)
C=CC(=O)N1CCN(c2ncnc3cc(-c4cc(Cl)ccc4O)c(Cl)cc23)CC1 [Compound I-118, 1-(4-(6-chloro-7-(5-chloro-2-hydroxyphenyl)quinazolin-4-yl)piperazin-1-yl)prop-2-en-1-one] | +++ (+++indicates binding activity greater than 50% and up to 75%)
C=CC(=O)N1CCN(c2ncnc3cc(-c4ccc(F)cc4C(F)(F)F)c(Cl)cc23)CC1 [Compound I-119, 1-(4-(6-chloro-7-(4-fluoro-2-(trifluoromethyl)phenyl)quinazolin-4-yl)piperazin-1-yl)prop-2-en-1-one] | +++ (+++indicates binding activity greater than 50% and up to 75%)
C=CC(=O)N1CCN(c2ncnc3cc(-c4ccccc4F)c(Cl)cc23)CC1C(N)=O (stereo not drawn) [Compound I-120, 1-acryloyl-4-(6-chloro-7-(2-fluorophenyl)quinazolin-4-yl)piperazine-2-carboxamide] | +++ (+++indicates binding activity greater than 50% and up to 75%)
C=CC(=O)N1CCN(c2ncnc3cc(-c4ccccc4C(F)(F)F)c(Cl)cc23)CC1C(N)=O (stereo not drawn) [Compound I-121, 1-acryloyl-4-(6-chloro-7-(2-(trifluoromethyl)phenyl)quinazolin-4-yl)piperazine-2-carboxamide] | ++++ (++++indicates binding activity greater than 75%)
C=CC(=O)N1CCN(c2ncnc3cc(-c4cc(F)ccc4O)c(Cl)cc23)CC1 [Compound I-122, 1-(4-(6-chloro-7-(5-fluoro-2-hydroxyphenyl)quinazolin-4-yl)piperazin-1-yl)prop-2-en-1-one] | ++ (++indicates binding activity greater than 25% and up to 50%)
C=CC(=O)N1CCN(c2ncnc3cc(-c4cccc5ccccc45)c(Cl)cc23)CC1 [Compound I-123, 1-(4-(6-chloro-7-(naphthalen-1-yl)quinazolin-4-yl)piperazin-1-yl)prop-2-en-1-one] | ++++ (++++indicates binding activity greater than 75%)
C=CC(=O)N1CCN(c2ncnc3cc(-c4ccccc4C(F)(F)F)c(Cl)cc23)CC1C (stereo not drawn) [Compound I-124, 1-(4-(6-chloro-7-(2-(trifluoromethyl)phenyl)quinazolin-4-yl)-2-methylpiperazin-1-yl)prop-2-en-1-one] | +++ (+++indicates binding activity greater than 50% and up to 75%)
C=CC(=O)N1CCN(c2ncnc3cc(-c4ccccc4C(F)(F)F)c(Cl)cc23)CC1CC#N (stereo not drawn) [Compound I-125, 2-(1-acryloyl-4-(6-chloro-7-(2-(trifluoromethyl)phenyl)quinazolin-4-yl)piperazin-2-yl)acetonitrile] | ++++ (++++indicates binding activity greater than 75%)
C=CC(=O)N1CCN(c2ncnc3cc(-c4ccccc4C4CC4)c(Cl)cc23)CC1 [Compound I-126, 1-(4-(6-chloro-7-(2-cyclopropylphenyl)quinazolin-4-yl)piperazin-1-yl)prop-2-en-1-one] | ++++ (++++indicates binding activity greater than 75%)
C=CC(=O)N1CCN(c2c(C#N)cnc3cc(-c4ccccc4F)c(Cl)cc23)CC1 [Compound I-127] | ++++ (++++indicates binding activity greater than 75%)
C=CC(=O)N1CCN(c2ncnc3cc(-c4cc(O)ccc4Cl)c(Cl)cc23)CC1 [Compound I-128, 1-(4-(6-chloro-7-(2-chloro-5-hydroxyphenyl)quinazolin-4-yl)piperazin-1-yl)prop-2-en-1-one] | +++ (+++indicates binding activity greater than 50% and up to 75%)
C=CC(=O)N1CCN(c2ncnc3cc(-c4cccc5ncoc45)c(Cl)cc23)CC1 [Compound I-129, 1-(4-(7-(benzo[d]oxazol-7-yl)-6-chloroquinazolin-4-yl)piperazin-1-yl)prop-2-en-1-one] | + (+indicates binding activity from 5% to 25%)
C=CC(=O)N1CCN(c2ncnc3cc(-c4cccc(C#N)c4)c(Cl)cc23)CC1 [Compound I-130, 3-(4-(4-acryloylpiperazin-1-yl)-6-chloroquinazolin-7-yl)benzonitrile] | + (+indicates binding activity from 5% to 25%)
C=CC(=O)N1CCN(c2ncnc3cc(-c4cccc(C(=O)N(C)C)c4F)c(Cl)cc23)CC1 [Compound I-131, 3-(4-(4-acryloylpiperazin-1-yl)-6-chloroquinazolin-7-yl)-2-fluoro-N,N-dimethylbenzamide] | + (+indicates binding activity from 5% to 25%)
C=CC(=O)N1CCN(c2ncnc3cc(-c4c(F)cccc4F)c(Cl)cc23)CC1 [Compound I-132, 1-(4-(6-chloro-7-(2,6-difluorophenyl)quinazolin-4-yl)piperazin-1-yl)prop-2-en-1-one] | +++ (+++indicates binding activity greater than 50% and up to 75%)
C=CC(=O)N1CCN(c2ncnc3cc(-c4ccc(F)cc4O)c(Cl)cc23)CC1 [Compound I-133, 1-0(4-(6-chloro-7-(4-fluoro-2-hydroxyphenyl)quinazolin-4-yl)piperazin-1-yl)prop-2-en-1-one] | ++ (++indicates binding activity greater than 25% and up to 50%)
C=CC(=O)N1CCN(c2ncnc3cc(-c4ccccc4O)c(Cl)cc23)CC1C (stereo not drawn) [Compound I-134, 1-(4-(6-chloro-7-(2-hydroxyphenyl)quinazolin-4-yl)-2-methylpiperazin-1-yl)prop-2-en-1-one] | ++ (++indicates binding activity greater than 25% and up to 50%)
C=CC(=O)N1CCN(c2ncnc3cc(-c4cccc5ncccc45)c(Cl)cc23)CC1 [Compound I-135, 1-(4-(6-chloro-7-(quinolin-5-yl)quinazolin-4-yl)piperazin-1-yl)prop-2-en-1-one] | + (+indicates binding activity from 5% to 25%)
C=CC(=O)N1CCN(c2ncnc3cc(-c4cccc5cnccc45)c(Cl)cc23)CC1 [Compound I-136, 1-(4-(6-chloro-7-(isoquinolin-5-yl)quinazolin-4-yl)piperazin-1-yl)prop-2-en-1-one] | ++ (++indicates binding activity greater than 25% and up to 50%)
